The source of these data is publication PMC7150891, “Mertansine Inhibits mRNA Expression and Enzyme Activities of Cytochrome P450s and Uridine 5′-Diphospho-Glucuronosyltransferases in Human Hepatocytes and Liver Microsomes” (Pharmaceutics, 2020).

Structures are written as SMILES. Like-named read-outs stand apart in the source and are kept apart here.

The subject of one series is CYP2C8. The arrangement: method as in PMID 25048520, PMID 22752008. The settings on record: human liver microsomes, competitive; read-out: Ki, CYP2C8-mediated paclitaxel 6α-hydroxylation; cited from earlier work. (In general: Liver microsomes are a subcellular fraction often used to study metabolism.)
For a further series, the system named is recombinant human CYP3A4. The arrangement: method as in PMID 25048520, PMID 22752008. The settings on record: cited from earlier work.
The test system of another series is CYP1A2. The series is described as follows: CYP1A2-catalyzed phenacetin O-deethylase activity in human hepatocytes after 48 h treatment. Here is the method: (§1) Samples were incubated for 48 h at 37 °C in 5% CO2, and the medium was exchanged with 250 μL of fresh medium containing drugs or the vehicle every 24 h.
(§2) The effects of mertansine on CYP1A2, CYP2B6, and CYP3A4 activities were evaluated. […] Mixtures were vortexed for 2 min and then centrifuged at 13,000 g for 4 min at 4 °C. The supernatant (40 µL) was diluted with 60 µL of deionized water and then mixed for 2 min by vortexing. An aliquot (5 µL) was analyzed using LC-MS/MS [37], and CYP1A2, CYP2B6, and CYP3A4 enzyme activities were expressed as formation rates (pmol/million cells/min).
(§3) The percentage changes in enzymatic activities were calculated as (CYP activity with test compound treatment/CYP activity with vehicle control treatment) × 100. The IC50 (the concentration of the inhibitor needed for half-maximal inhibition) values were calculated using SigmaPlot ver. […] Ki (the inhibition constant) and the inhibition mode of UGT1A1, UGT1A3, and UGT1A4 activities were determined using Enzyme Kinetics ver. 1.1 (Systat Software, Inc.).

The conditions of series [1]: rats, intravenous [3H]-mertansine 0.2 mg/kg, cited from earlier work.
The subject of a further series is CYP2D6. The arrangement: method as in PMID 25048520, PMID 22752008. The settings on record: human liver microsomes, competitive; read-out: Ki, CYP2D6-mediated dextromethorphan O-demethylation; cited from earlier work.
A further series deals with CYP2C19 mRNA. The series is described as follows: CYP2C19 mRNA level in human hepatocytes after 48 h treatment (RT-PCR). The settings on record: plated cryopreserved human hepatocytes, IC50, suppression of CYP2C19 mRNA expression, 1.25–2500 nM.
Another series concerns UGT1A4 mRNA. The series is described as follows: UGT1A4 mRNA level in human hepatocytes after 48 h treatment (RT-PCR). The settings on record: for IC50: read-out: IC50, suppression of UGT1A4 mRNA expression, 1.25–2500 nM.
In another series the test system is CYP2B6. The series is described as follows: CYP2B6-catalyzed bupropion hydroxylase activity in human hepatocytes after 48 h treatment. Here is the method:
as §1, §2, §3

[2] abbreviates: highest concentration (2500 nM), 48 h, mean of three human hepatocytes.
[3] abbreviates: mertansine 48 h, three human hepatocytes.
Where [4] appears, read: human hepatocytes Lot 319, 48 h.
Setting [5] is: human hepatocytes Lot 321, 48 h.
Where [6] appears, read: human hepatocytes Lot 361, 48 h.

In the case of `COc1cc2cc(c1Cl)N(C)C(=O)CC(OC(=O)C(C)N(C)C(=O)CCS)C1(C)OC1C(C)C1CC(O)(NC(=O)O1)C(OC)C=CC=C(C)C2` (stereo not shown) [mertansine, Mertansine], the results for the Ki in the series on CYP2C8 and with CYP2D6 were 11000 nM and 14000 nM, respectively. In addition, the KI (inactivation) in the series with recombinant human CYP3A4 (recombinant human CYP3A4, irreversible inhibition, read-out: Ki, inactivation of midazolam 1′-hydroxylation) was 3400 nM. Besides, in the series with recombinant human CYP3A4 (recombinant human CYP3A4), the “kinact, inactivation of midazolam 1′-hydroxylation” value was 0.058 min⁻¹. Moreover, the “Mean decrease of CYP1A2-mediated phenacetin O-deethylase activity” value in the series on CYP1A2 (setting [2]) was 48.3%. The “Decrease of CYP1A2-mediated phenacetin O-deethylase activity compared to vehicle” value with CYP1A2 (setting [3]) was 27.8–79.0%. Also, the Tissue-to-blood radioactivity ratios in series [1] (highly perfused organs, for 24 h) was 1~11. Moreover, the “Biliary excretion of dosed radioactivity” value in series [1] (over 72 h) is given as ~ 46%. The “Dosed radioactivity recovered in urine” value in series [1] (over 120 h) is recorded as 5%. Also, the IC50 (usually the concentration that gives 50% inhibition) at 48 h in the series on CYP2C19 mRNA (Mean ± SD of three human hepatocyte lots, 48 h) was 540 ± 233 nM; with CYP2C19 mRNA (setting [4]), 574 nM; in the series with CYP2C19 mRNA (setting [5]), 754 nM; with CYP2C19 mRNA (setting [6]) it was 291 nM; with UGT1A4 mRNA (human), over 2500 nM. Moreover, the IC50 with UGT1A4 mRNA (setting [4]), in the series with UGT1A4 mRNA (setting [5]) and in the series on UGT1A4 mRNA (setting [6]) was over 2500 nM each time. The “Mean decrease of CYP2B6-mediated bupropion hydroxylase activity” value in the series with CYP2B6 (setting [2]) came out at 63.5%. Further, the “Decrease of CYP2B6-mediated bupropion hydroxylase activity compared to vehicle” value with CYP2B6 (setting [3]) is recorded as 23.9–93.1%.
